These are literature values, as cited in patent US20160000088A1, “PROCESS FOR PRODUCING SILVER-ION ANTIBACTERIAL LIQUID, SILVER-ION ANTIBACTERIAL LIQUID PRODUCED BY SAID PROCESS, AND SILVER-ION-CONTAINING PRODUCT CONTAINING SAID ANTIBACTERIAL LIQUID” (TAIKI CORP., LTD., priority 2013, published 2016).

A value given as a limit tells only on which side of the number the result lay.

In this series the test system is Staphylococcus aureus. As to conditions: silver ion concentration of 10 ppb; nutrient broth added (NB culture).

As for silver ions, the “decrease of bacterial count” value is on record as not below 2 logs.
